According to patent US10253002B2, “Compounds and methods of treating infections” (Neoculi Pty Ltd., priority 2013, dated 2019):
Converted amounts (≈) assume the structure as drawn. “And” between values parts separate entries of the source, which are not always exact repeats. Identical values can stand only once. Like-named read-outs stand apart in the source and are kept apart here.

Legend:
[1] = test system: Pseudomonas aeruginosa; assay: Broth microdilution MIC, Example 7 (NCL812 and analogues); assay type: cell-based; details: for MIC: Pseudomonas aeruginosa, 24 h, read-out: MIC (μg/ml) at 24 hours P. aeruginosa, P. aeruginosa, 24 hours
[2] = Bioassay ranking of the analogues tested; details: M + R (MRSA and VRE combined)
[3] = test system: MRSA; assay: Broth microdilution MIC, Example 7 (NCL812 and analogues); assay type: cell-based, Staphylococcus aureus; details: for activity against MRSA among analogues: MIC testing, two MRSA strains; for MIC: Staphylococcus aureus; for MRSA / MIC: MRSA
In short: (§1)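 Turbidity read visually and then at 600 nm defined the MIC (μg/ml), comparing drug-containing wells with a growth-control well lacking antimicrobial. Testing followed the CLSI broth microdilution method, in duplicate, using two strains per organism group.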

[4] = test system: Escherichia coli; assay: as above; assay type: cell-based; details: E. coli, 24 hours; for MIC: Escherichia coli, read-out: MIC (μg/ml) at 24 hours E. coli
[5] = test system: VRE; assay: as above; assay type: cell-based, Enterococcus spp.; details: for activity against VRE among analogues: MIC testing, two VRE strains; for MIC: Enterococcus; for VRE / MIC: VRE
In short: as §1

[6] = MRSA 1, 24 hours, duplicate lines per compound
[7] = MRSA 2, 24 hours, duplicate lines per compound
[8] = VRE 1, 24 hours, duplicate lines per compound
[9] = VRE 2, 24 hours, duplicate lines per compound
[10] = 24 h, read-out: MIC (μg/ml) at 24 hours MRSA 1, MRSA 1, 24 hours
[11] = 24 h, read-out: MIC (μg/ml) at 24 hours MRSA 2, MRSA 2, 24 hours
[12] = bioassay ranking, read-out: MRSA
[13] = 24 h, read-out: MIC (μg/ml) at 24 hours VRE 1, VRE 1, 24 hours
[14] = 24 h, read-out: MIC (μg/ml) at 24 hours VRE 2, VRE 2, 24 hours
[15] = bioassay ranking, read-out: VRE

| Structure (SMILES) | M + R [2] [µg/mL] | activity against MRSA among analogues [3] | MRSA ([3]; bioassay ranking) [µg/mL] | activity against VRE among analogues [5] | VRE ([5]; bioassay ranking) [µg/mL] | MIC (μg/ml) at 24 hours, MRSA 2 ([3]; MRSA 2, 24 hours) [µg/mL] | MIC (μg/ml) at 24 hours, VRE 2 ([5]; VRE 2, 24 hours) | MIC (μg/ml) at 24 hours, MRSA 1 ([3]; MRSA 1, 24 hours) | MIC (μg/ml) at 24 hours, P. aeruginosa [1] [µg/mL] | MIC (μg/ml) at 24 hours, E. coli [4] [µg/mL] | MIC (μg/ml) at 24 hours, VRE 1 ([5]; VRE 1, 24 hours) | also measured |
| --- | --- | --- | --- | --- | --- | --- | --- | --- | --- | --- | --- | --- |
| Cl.N=C(N/N=C/c1ccccc1O)N/N=C/c1ccccc1O [NCL107] | 46 | greatest activity | 12 | greatest activity | – | – | – | – | – | – | – | MIC (μg/ml) at 24 hours, P. aeruginosa ([1]; duplicate lines per compound): >128 µg/mL; MIC (μg/ml) at 24 hours, MRSA 1 [3, 6]: 8 µg/mL; MIC (μg/ml) at 24 hours, MRSA 2 [3, 7]: 16 µg/mL; MIC (μg/ml) at 24 hours, E. coli ([4]; duplicate lines per compound): >128 µg/mL; MIC (μg/ml) at 24 hours, VRE 1 [5, 8]: 32 µg/mL; MIC (μg/ml) at 24 hours, VRE 2 [5, 9]: 128 µg/mL |
| CN(C)c1ccc(C=NNC(=N)NN=Cc2ccc(N(C)C)cc2)cc1.Cl [NCL113] | 12 | greatest activity | 12 | greatest activity | 12 | – | – | – | – | – | – | MIC (μg/ml) at 24 hours, P. aeruginosa ([1]; duplicate lines per compound): >128 µg/mL; MIC (μg/ml) at 24 hours, MRSA 1 [3, 6]: 16 µg/mL; MIC (μg/ml) at 24 hours, MRSA 2 [3, 7]: 8 µg/mL; MIC (μg/ml) at 24 hours, E. coli ([4]; duplicate lines per compound): >128 µg/mL; MIC (μg/ml) at 24 hours, VRE 1 [5, 8]: 8 µg/mL; MIC (μg/ml) at 24 hours, VRE 2 [5, 9]: 16 µg/mL |
| Nc1nc(N/N=C/c2ccc(Br)cc2)cc(N/N=C/c2ccc(Br)cc2)n1 [NCL193] | 3.75 | greatest activity | – | greatest activity | – | 4 (≈ 8.18 µM) | 8 µg/mL (≈ 16.4 µM) | – | – | – | – | MIC [1]: > 128 µg/mL; MIC [3, 10]: 2 µg/mL (≈ 4.09 µM); MIC [3, 11]: 2 µg/mL (≈ 4.09 µM); MIC [3, 12]: 2.5 µg/mL (≈ 5.11 µM); MIC [4]: > 128 µg/mL; MIC [5, 13]: 4 µg/mL (≈ 8.18 µM); MIC [5, 14]: 4 µg/mL (≈ 8.18 µM); MIC [5, 15]: 5 µg/mL (≈ 10.2 µM) |
| Cc1ccc(/C=N/Nc2cc(N/N=C/c3ccc(C)cc3)nc(N)n2)cc1 [NCL195, 4,6-bis(2-((E)-4-methylbenzylidene)hydrazinyl)pyrimidin-2-amine] | 2.75 | greatest activity | – | greatest activity | – | 2 (≈ 5.56 µM) | 4 µg/mL (≈ 11.1 µM) | 2 µg/mL (≈ 5.56 µM) | – | – | – | MIC [1]: > 128 µg/mL; MIC [3, 10]: 2 µg/mL (≈ 5.56 µM); MIC [3, 11]: 2 µg/mL (≈ 5.56 µM); MIC [3, 12]: 2 µg/mL (≈ 5.56 µM); MIC [4]: > 128 µg/mL; MIC [5, 13]: 4 µg/mL (≈ 11.1 µM); MIC [5, 14]: 2 µg/mL (≈ 5.56 µM); MIC [5, 15]: 3.5 µg/mL (≈ 9.74 µM) |
| Nc1nc(N/N=C/c2cccc(O)c2)cc(N/N=C/c2cccc(O)c2)n1 [NCL197] | 7.5 | greatest activity | 8 | greatest activity | 7 | 8 (≈ 22 µM) | 8 µg/mL (≈ 22 µM) | 8 µg/mL (≈ 22 µM) | >128 | >128 | 8 µg/mL and 4 µg/mL | – |
| Nc1nc(N/N=C/c2ccccc2O)cc(N/N=C/c2ccccc2O)n1 [NCL202] | 9 | greatest activity | 10 | greatest activity | 8 | 8 (≈ 22 µM) | 8 µg/mL (≈ 22 µM) | 8 µg/mL (≈ 22 µM) | >128 | >128 | 8 µg/mL (≈ 22 µM) | – |
| Cl.Cl.Nc1nc(N/N=C/C2CCCCC2)cc(N/N=C/C2CCCCC2)n1 [NCL203] | 44 | greatest activity | – | greatest activity | – | 64 | 32 µg/mL | 32 µg/mL | >128 | >128 | 32 µg/mL and 64 µg/mL | – |
| CC(=NNC(=N)NN=C(C)c1ccc(Cl)cc1F)c1ccc(Cl)cc1F.Cl [NCL215] | 7.25 | greatest activity | 10 | greatest activity | 4.5 | 8 | 4 µg/mL and 8 µg/mL | 8 µg/mL and 16 µg/mL | >128 | >128 | 2 µg/mL and 4 µg/mL | – |
